US12213979B2, “Biomarkers of methotrexate-induced immune tolerance” (Genzyme Corporation, priority 2017, dated 2025)
One block for each compound: values may come before it.

Key:
[1] = test system: total RBCs (Ter-119+) and immature, nucleated RBCs (Ter-119+CD71+); assay: Flow cytometry of erythroid cells in spleen; type: in vivo, mice
Procedure: (§1) C57BL/6 (Jackson Laboratory) or C57BL/6NTac (Taconic Biosciences, Inc.) female mice between S and 12 weeks of age were housed and maintained in accordance with the Guide for the Care and Use of Laboratory Animals, under the American Association for Accreditation of Laboratory Animal Care. The Institutional Animal Care and Use Committee approved all animal procedures. […] Subsequent weekly doses of rhGAA (up to 16 weeks) were given 15 minutes after prophylactic intraperitoneal administration of 30 mg/kg diphenhydramine (West-ward Pharmaceutical). The vehicle control or formulation buffer (FB) for rhGAA. was administered similarly to reconstituted rhGAA. Blood was collected by retro-orbital Heeds from anesthetized mice or by terminal bleeds into EDTA anticoagulant Capiject micro collection tubes (Terumo) on wet ice. Spleens were prepared into single-cell suspension between glass slides with or without RBC lysis. Bone marrow was collected from a single femur on wet ice.
(§2) Anti-mouse antibodies used for flow cytometry include BioLegend antibodies PE-Ter-119 (catalog 116208), PerCP-Cy5.5-CD71 (catalog 113816), PE-Cy7-IgM (catalog 406516), Pacific Blue (PB)-CD86 (catalog 105022) and allophycocyanin-CD45 (catalog 103116). Antibodies from BD Biosciences include FITC-CD44 (catalog 553133), allophycocyanin-CD3 (catalog 550035), allophycocyanin-CD19 or allophycocyanin-Cy7-CD19 (catalog 557655 and 550992), FITC-CD1d (catalog 553843), FITC-CD23 (catalog 553138) and allophycocyanin-Cy7-CD3, (catalog 557596). Live/dead discrimination was determined by staining with BioLegend Zombie Aqua Fixable Visability Kit. Samples were run on a BD FACS Canto II (BD Biosciences) and acquired with BD FACSDiva software. Cytometry data was analyzed on Floyd( )software version 10 (FlowJo, LLC). Absolute numbers of cell population were calculated from CountBright Absolute Counting Beads (ThermoFisher Scientific). Cell types assessed include total RBCs (Ter-119^+), immature, nucleated RBCs (Ter-119^+, CD71^+), mature RBCs (Ter-119^+, […]), proerythrohlasts (Ter-119^intermediate, CD44^high), basophilic erythroblasts (Ter-119^+, CD44^highFSC^high), polychromatic erythroblasts (Ter-119^+, CD44^intermediateFSC^intermediate), orthochromatic erythroblasts and reticulocytes (Ter-119^+, CD44^intermediateFSC^low), mature red blood cells (Ter-119^+, CD44^lowFSC^low), total activated B cells (CD19^+CD86^+), activated follicular B cells (CD19^+, IgM^low/high CD23^+, CD86^+), activated marginal zone B cells (CD19^+, IgM^high CD23^−, CD86^+), and B10 regulatory B cells (CD19^+, CD1d^highCD5^+) (Allman et. al., 2004: Chen et. al., 2009; Koulnis et. al., 2011; Joly et. al., 2014).

[2] = test system: genes associated with erythropoiesis; assay: RNA-sequencing of spleen and PBMC's of treated mice; type: in vivo; details: for transcriptional signatures of erythropoiesis: day 7 after rhGAA initiation, rhGAA in conjunction with low-dose methotrexate
Procedure: Animals were sacrificed on day 7 after rhGAA initiation. Blood was collected by terminal retro-orbital bleeds as described above. Whole blood diluted 1 part in 2 with PBS was layered over Ficoll for the separation of peripheral blood mononuclear cells (PBMC's). Spleens were prepared into single-cell suspension between glass slides. Samples were treated for RBC lysis (BD Pharm Lyse). […] The RNA integrity number (RIN) was evaluated. on an Agilent 2100 bioanalyzer with the RNA 6000 nano kit (Agilent) or RNA 6000 pica kit (Agilent). RNA amplification was performed with the SMARTER™ PCR cDNA Synthesis Kit (Clonetech). Detection of sequencing fragments was performed on the Illumina HiSeq2000 with Illumina sequencing kits. RNA-seq data sets were filtered to remove adaptors and low-quality, reads and assessed for differential expression with a fold change of 2 and p value≤0.05. Differentially expressed genes were annotated and examined through NextBio biological data mining software (Illumina).

[3] = test system: total RBCs (Ter-119+) and immature, nucleated RBCs (Ter-119+CD71+); assay: Flow cytometry of erythroid cells in bone marrow; type: in vivo, mice
Procedure: as §1, §2

[4] = test system: erythroid ankyrin and glycophorin C; assay: Tissue mass spectrometry imaging (tMSI) of spleen; type: in vivo, mice; details: 7 days after rhGAA initiation, methotrexate given together with rhGAA or FB
Procedure: Fresh spleen samples for tMSI were collected in 10% gelatin (Alfa Aesar catalog J62699), frozen en bloc, cut into […] sections, and deposited on indium tin oxide ([…]) glass slides. ITO glass slides were coated with matrix-assisted laser desorption/ionization (MALDI) matrix (α-cyano-4-hydroxycinnamic acid) for tMSI. Mass spectrometry imaging was performed with AB Sciex 4800 MALDI-TOF/TOF, Autoflex MALDI-TOF/TOF and 7T SolariX MALDI-FTICR mass spectrometers. The imaging data sets were analyzed with TissueView, flexlmaging, or Multimaging 1.1 (ImaBiotech).

[5] = test system: anti-rhGAA IgG antibody; details: historical data; rhGAA with transient low-dose methotrexate ITI regimen vs rhGAA alone; cited from earlier work
[6] = test system: proteins of erythropoiesis related pathways (transferrin receptor 1, transferrin); assay: LC/MS protein mass spectrometry of spleen of treated mice; type: in vivo; details: day 7, rhGAA with vs without transient low-dose methotrexate
Procedure: as §1, with “Spleens were prepared into single-cell suspension between glass slides with or without RBC lysis. Bone marrow was collected from a single femur on wet ice.” left out
Blood was collected by terminal retro-orbital bleeds as described above followed by separation of plasma and PBC by centrifugation. […] Data was analyzed by Progenesis QI for Proteomics (Nonlinear Dynamics) for peak detection. […] Protein quantitation was performed through Progenesis QI for Proteomics. Fold change and p-values were calculated from the average normalized protein abundance data for each experimental group. […] Data were analyzed for enrichment scores in GO processes and other biological categories in MetaCore (Thomson Reuters).

[7] = Spleen weight and spleen cellularity; type: in vivo, mice; details: day 7; rhGAA concurrent with a single cycle of low-dose methotrexate vs rhGAA alone
Procedure: as §1, with “Spleens were prepared into single-cell suspension between glass slides with or without RBC lysis. Bone marrow was collected from a single femur on wet ice.” left out
Anti-mouse antibodies used for flow cytometry include BioLegend antibodies PE-Ter-119 (catalog 116208), PerCP-Cy5.5-CD71 (catalog 113816), PE-Cy7-IgM (catalog 406516), Pacific Blue (PB)-CD86 (catalog 105022) and allophycocyanin-CD45 (catalog 103116). […] Live/dead discrimination was determined by staining with BioLegend Zombie Aqua Fixable Visability Kit. […] Cytometry data was analyzed on Floyd( )software version 10 (FlowJo, LLC). Absolute numbers of cell population were calculated from CountBright Absolute Counting Beads (ThermoFisher Scientific). […]

[8] = Hematology: CBC and reticulocyte count on Sysmex XT2000iV; type: in vivo, mice; details: blood; 7 days after rhGAA initiation; groups with transient low-dose methotrexate (rhGAA or FB)
Procedure: as §1
Samples were collected by retro-orbital bleed into EDTA anticoagulant Capiject micro collection tubes as described above and stored at 2-8° C. for no longer than 72 hours. CBC, WBC differential analysis and reticulocyte count were performed on Sysmex XT2000iV (Sysmex). Histology, immunohistochemistry (IHC)

[9] = test system: total RBCs (Ter-119+) and immature, nucleated RBCs (Ter-119+CD71+); assay: Flow cytometry of erythroid cells in blood; type: in vivo, mice
Procedure: as §1, §2

[10] = test system: anti-rhGAA IgG antibody; assay: Serum anti-rhGAA antibody titers by ELISA, dosed control mice; type: in vivo; details: high outlier not removed (data not shown)
Procedure: as §1
Quantitation of anti-rhGAA antibody titers from mouse serum was measured by ELBA as previously described (holy, Martin et. al. 2014). […] The reaction was stopped by addition of 1 N HCl and absorbance was immediately measured at 450/650 nm on a SpectraMax M2 (Molecular Devices). End-point titers were derived from the reciprocal of the sample dilution resulting in an absorbance value of 0.2.

[11] = day 2, CD44/FSC gating, with rhGAA vs rhGAA alone
[12] = day 2, with rhGAA vs rhGAA alone
[13] = day 7, CD44/FSC gating, with rhGAA vs rhGAA alone
[14] = day 7, with rhGAA vs rhGAA alone
[15] = day 9, with rhGAA vs rhGAA alone
[16] = day 4, CD44/FSC gating, with rhGAA vs rhGAA alone
[17] = day 4, with rhGAA vs rhGAA alone
[18] = day 5, with rhGAA vs rhGAA alone
[19] = day 7 and 9, with rhGAA vs rhGAA alone
[20] = day 9, CD44/FSC gating, with rhGAA vs rhGAA alone

transferrin protein level [6]: upregulation
transferrin receptor 1 protein level [6]: upregulation
Compound: CN(Cc1cnc2nc(N)nc(N)c2n1)c1ccc(C(=O)N[C@@H](CCC(=O)O)C(=O)O)cc1 [methotrexate]
day of peak enrichment of immature, nucleated RBCs [1]: 7 days
time to significant reduction in immature, nucleated RBCs and mature RBCs ([1]; after the first administration of low-dose methotrexate): ≤ 24 h
all stages of early erythroid cells (proerythroblasts, basophilic, polychromatic, orthochromatic erythroblasts and reticulocytes) [1, 11]: significantly diminished
mature RBCs [1, 11]: significantly reduced
immature, nucleated RBCs (Ter-119+CD71+) [1, 12]: nearly complete reduction
total erythroid cells (Ter-119+) [1, 12]: significant reduction
erythroid cells, difference between groups ([1]; day 6, with rhGAA vs rhGAA alone): No differences
mature RBCs [1, 13]: no differences
proerythroblasts, basophilic, polychromatic and orthochromatic erythroblasts and reticulocytes [1, 13]: significant enrichment
immature, nucleated RBCs (Ter-119+CD71+) [1, 14]: significant expansion
total erythroid cells (Ter-119+) [1, 14]: large and significant enrichment
immature, nucleated RBCs (Ter-119+CD71+) [1, 15]: smaller but significant enrichment
total erythroid cells (Ter-119+) [1, 15]: smaller but significant enrichment
erythroid response ([1]; transient low-dose methotrexate alone (with FB)): mimicked that of the group treated with transient low-dose methotrexate together with rhGAA
transcriptional signatures of erythropoiesis ([2]; PBMC's): upregulation of transcriptional signatures of erythropoiesis
TfR1 in the transcriptional data set ([2]; day 7, rhGAA and low-dose methotrexate vs rhGAA alone): upregulation
transcriptional signatures of erythropoiesis ([2]; spleen): upregulation of transcriptional signatures of erythropoiesis
all stages of early erythroid cells [3, 16]: significant depletion
mature RBCs [3, 16]: no statistically significant differences
immature, nucleated RBCs [3, 17]: significantly reduced
total RBCs [3, 17]: no Differences
all erythroid cell stages, including early and mature RBCs ([3]; day 5, CD44/FSC gating, with rhGAA vs rhGAA alone): Depletion
immature, nucleated RBCs [3, 18]: significantly reduced
total RBCs [3, 18]: significantly reduced
mature RBCs [3, 13]: significantly reduced
proerythroblasts and polychromatic erythroblasts [3, 13]: small but significant enrichment
immature, nucleated RBCs [3, 19]: no differences
total RBCs [3, 19]: no differences
mature RBCs [3, 20]: no differences
proerythroblasts and polychromatic erythroblasts [3, 20]: small but significant enrichment
erythroid ankyrin signal in 10 μM spleen sections [4]: diminished
glycophorin C signal in 10 μM spleen sections [4]: diminished
rhGAA titers and AUC [5]: significantly reduced
spleen cellularity by flow cytometry [7]: significantly greater
spleen weight [7]: significantly enlarged
Hemoglobin content [8]: significantly reduced
Total RBC numbers (CBC) [8]: significantly reduced
frequency and numbers of mature reticulocytes [8]: no observed differences
frequency of the immature reticulocyte fraction (IRF) [8]: significantly enriched
hematocrit [8]: significantly reduced
basophilic erythroblasts, orthochromatic erythroblasts, reticulocytes and mature red blood cells [9, 11]: small but significant reduction
immature, nucleated RBCs [9, 12]: significant depletion
total RBCs [9, 12]: significant depletion
immature, nucleated RBCs [9, 17]: nearly absent
immature, nucleated RBCs [9, 13]: no changes
mature RBCs [9, 13]: significant reduction
total RBCs [9, 14]: significantly reduced
immature, nucleated RBCs ([9]; day 7, with rhGAA vs rhGAA alone, Ter-119/CD71 gating): significantly enriched
immature, nucleated RBCs [9, 15]: significantly enriched
total RBCs [9, 15]: significantly enriched
immature, nucleated RBCs ([9]; day 14, with rhGAA vs rhGAA alone): small but significant enrichment
enrichment of immature, nucleated RBCs ([9]; day 28, with rhGAA vs rhGAA alone): absent
total RBCs ([9]; methotrexate alone vs vehicle control): no observed differences
rhGAA titers and AUC, difference between dosed control groups [10]: no differences

Compound: rhGAA: recombinant human acid-α-glucosidase, enzyme replacement therapy used to treat Pompe disease
erythroid ankyrin signal in 10 μM spleen sections [4]: evenly distributed across the spleen
glycophorin C signal in 10 μM spleen sections [4]: evenly distributed across the spleen
